Measured values as given in patent US20260071220A1, “CONJUGATE OF NUCLEOTIDE ANALOG-CONTAINING DOUBLE-STRANDED RNAI ANALOG” (BaseCure Therapeutics LLC, priority 2022, published 2026).
Values joined by “and” are separate entries in the source; they are usually repeats but may differ in a detail not shown here. Equal values may be shown once. In the oligonucleotide strings, read from the 5' end, every base follows the letter of its sugar. An asterisk marks phosphorothioate; unmarked linkages are phosphodiester. Other units and linkages are bracketed, terminal groups are in braces. A string of capitals states the bases alone. {D01} = GalNAc ligand D01, attached to sense strand by a phosphodiester bond; m = 2'-O-methyl; f = 2'-fluoro

Key:
[1] = tested on: AGT protein; experiment: In vivo PD experiment of non-human primate cynomolgus monkey (plasma AGT protein); conditions: for plasma AGT protein level after administration/before administration, Average: group average; for plasma AGT protein level after administration/before administration: individual animal
Text: The downregulation degree of cynomolgus monkey plasma AGT by the sample to be tested was observed through a non-human primate cynomolgus monkey model highly homologous to a human in AGT gene.
2. Experimental materials: cynomolgus monkeys, 1×PBS (phosphate buffer solution), AD-85481 (US2021095290), and a conjugate of the present invention.
10 cynomolgus monkeys with the weight of 2-3 kg were purchased, and the animals were adapted to quarantine for one week after arriving at an animal room.
On Day −6, cynomolgus monkeys were divided into groups at random according to weight data, with 2 cynomolgus monkeys in each group, the AGT protein concentrations in plasmas of all the cynomolgus monkeys were detected after grouping as an experimental data baseline for each group.
Administration was performed on Day 1. Group 1 was dosed with 1×PBS; group 2 was subcutaneously injected with AD-85481 at the dose of 0.3 mpk; group 3 was subcutaneously injected with AD-85481 at the dose of 3 mpk; group 4 was subcutaneously injected with the conjugate 2 of the present invention at the dose of 0.3 mpk; group 5 was subcutaneously injected with the conjugate 2 of the present invention at the dose of 3 mpk. Blood was collected on Day 1, 2, 4, 8, 15, 22, 29, 32, 35, 43, 57, 71 after administration to detect the AGT protein concentration in plasma of each cynomolgus monkey. By comparing the AGT protein concentration in plasma after administration to the AGT protein concentration on Day −6, the relative downregulation proportion of the AGT proteins in each group of animals was obtained.
4. In the table, the data represent AGT gene expression level after administration/AGT gene expression level before administration.

[2] = tested on: AGT mRNA; experiment: Free uptake experiment of PHH cells (AGT mRNA by qPCR); assay type: cell-based, human; conditions: 48 h
Experimental: A sample to be tested was incubated with primary human hepatocytes. The downregulation degree of AGT mRNA by the sample to be tested was evaluated.
Primary human hepatocytes (PHH), RNeasy® 96 Kit (12) (QIAGEN-74182), FastKing RT Kit (With gDNase) (Tiangen-KR116-02), TaqMan Gene Expression Assay (GAPDH, Thermo, Assay ID-Hs02786624_g1), TaqMan Gene Expression Assay (AGT, Thermo, Assay ID-Hs01586213_m1).
A conjugate of the present invention was diluted with a PBS solution until the obtained concentration was 10 times the concentration to be tested. 10 uL of siRNA was transferred to a 96-well plate. PHH cells were thawed and seeded to the 96-well plate, and the final cell density was 5.4×10^5 cells/well. The conjugate of the present invention was tested for 10 concentration points, and the highest concentration was 500 nM, with 4-fold dilution.
The cells were incubated for 48 h under the conditions of 37° C. and 5% CO2, and the state of the cells was observed using a microscope.
After the incubation was completed, the cells were lysed, all of RNA was extracted from the obtained lysate using RNeasy® 96 Kit (QIAGEN-74182), and underwent reverse transcription using FastKing RT Kit (With gDNase) (Tiangen-KR116-02) to obtain cDNA. AGT cDNA was detected by qPCR.

[3] = tested on: Transcriptome; experiment: In vitro RNA sequencing study (off target risk); assay type: cell-based
Text: Transcriptome refers to a sum of all RNA transcripted from specific tissues or cells at a certain time or state, mainly including mRNA and non-encoding RNA. Transcriptome sequencing is to study all mRNA transcripted from specific tissues or cells during a certain period based on an Illumina sequencing platform, is a basis for gene functions and structure study, and plays an important role in understanding the development of organisms and the occurrence of diseases. With the development of gene sequencing technologies and reduction in sequencing cost, RNA-seq, with its advantages of high throughput, high sensitivity and wide application range, has become a main method for transcriptome study. The RNA-seq technical process mainly includes two parts: library construction and sequencing, and biological information analysis.
RNA was extracted from tissues or cells using a standard extraction method, and subsequently serious quality control was performed on RNA samples. The quality control method was mainly achieved by Agilent 2100 bioanalyzer to precisely detect the integrity of RNA.
mRNA was obtained mainly by the following two methods: one was to utilize the structural feature that most mRNA in eukaryotes had polyA tails to enrich mRNA with polyA tails using Oligo (dT) magnetic beads; and the other one was to remove ribosomal RNA from total RNA to obtain mRNA. Subsequently, the obtained mRNA was randomly fragmented using divalent cations in NEB Fragmentation Buffer, and library construction was carried out using either an NEB ordinary library construction method or a strand specific library construction method.
NEB ordinary library construction: a first strand of a cDNA was synthesized in an M-MuLV reverse transcriptase system by using fragmented mRNA as a template and random oligonucleotides as primers. Subsequently, the RNA strand was digested using RNaseH, and a second strand of the cDNA was synthesized in a DNA polymerase I system using dNTPs as a raw material. The purified double-stranded cDNA was subjected to end repair, A tail addition and sequencing linker linkage. About 250-300 bp cDNAs were screened using AMPure XP beads and subjected to PCR amplification, and the PCR product was purified again using AMPure XP beads to finally obtain a library. A kit for library construction was NEBNext® Ultra™ RNA Library Prep Kit for Illumina®.
Strand specific library construction: a method for synthesizing the first strand of cDNA was the same as the NEB ordinary library construction method except that when the second strand was synthesized, dTTP in dNTPs was replaced by dUTP, and then end repair, A tail addition, sequencing linker linkage and length screening of cDNA were similarly carried out. Subsequently, the second strand of cDNA containing U was digested using USER enzyme followed by PCR amplification to obtain the library. […] A kit used for the library construction was NEB Next® Ultra™ Directional RNA Library Prep Kit for Illumina®.
After library construction was completed, preliminary quantification was carried out using Qubit2.0 Fluorometer. The library was diluted to 1.5 ng/uL, and subsequently the insert size of the library was detected using Agilent 2100 bioanalyzer. After the insert size met the expectation, the effective concentration of the library was accurately quantified by QRT-PCR (the effective concentration of the library was higher than 2 nM) to ensure the quality of the library.
After library inspection was qualified, different libraries were subjected to Illumina sequencing after pooling according to effective concentration and target offline data volume requirements. The basic principle of sequencing was sequencing by synthesis. Four fluorescent labeled dNTPs and DNA polymerases as well as linker primers were added in the sequenced flow cell for amplification. […]

Conjugate 2: Double-stranded RNAi analog against AGT, D01 GalNAc ligand on sense strand; sense SEQ ID NO: 6, antisense SEQ ID NO: 2 containing Z (sense mA*mU*fCfCmAfCfAfAmUmGmAmGmAfGmUmAmCmA-{D01}; antisense CUCACAUGUACNCUCAUUGUGGAUGACGA; antisense: chemistry not given here; antisense strand modified, includes nucleotide analog Z, further chemistry not fully specified)
plasma AGT protein level after administration/before administration, Average ([1]; 0.3 mg/kg single s.c., Day 22 vs Day -6): 25.72%
plasma AGT protein level after administration/before administration, Average ([1]; 0.3 mg/kg single s.c., Day 71 vs Day -6): 51.76%
plasma AGT protein level after administration/before administration, Average ([1]; 3 mg/kg single s.c., Day 22 vs Day -6): 2.47%
plasma AGT protein level after administration/before administration, Average ([1]; 3 mg/kg single s.c., Day 71 vs Day -6): 9.88%
plasma AGT protein level after administration/before administration ([1]; 0.3 mg/kg single s.c., Day 22 vs Day -6, 0.3 mg/kg): 28.47% and 22.96%
plasma AGT protein level after administration/before administration ([1]; 0.3 mg/kg single s.c., Day 71 vs Day -6, 0.3 mg/kg): 55.17% and 48.35%
plasma AGT protein level after administration/before administration ([1]; 3 mg/kg single s.c., Day 22 vs Day -6, 3 mg/kg): 0.84% and 4.09%
plasma AGT protein level after administration/before administration ([1]; 3 mg/kg single s.c., Day 71 vs Day -6, 3 mg/kg): 10.84% and 8.92%
Emax (remaining AGT mRNA) [2]: 5%
EC50 ([2]; AGT mRNA, read-out: Absolute EC50): 0.197 nM
Log (concentration) ([2]; log of the absolute EC50 in nM): −0.705
Downregulate Average ([3]; number of downregulated genes, average): 658
Downregulate N = 1 ([3]; number of downregulated genes, replicate 1): 1006
Downregulate N = 2 ([3]; number of downregulated genes, replicate 2): 309
Upregulate Average ([3]; number of upregulated genes, average): 722
Upregulate N = 1 ([3]; number of upregulated genes, replicate 1): 1033
Upregulate N = 2 ([3]; number of upregulated genes, replicate 2): 410
Total Average ([3]; total regulated genes, average): 1379
Total N = 1 ([3]; total regulated genes, replicate 1): 2039
Total N = 2 ([3]; total regulated genes, replicate 2): 719
